Assay results from patent US8952024B2, “Herbicidal pyrimidone derivatives” (E I du Pont de Nemours and Company, priority 2009, dated 2015).

Legend:
Type in all cases: in vivo
[1] = test system: barnyardgrass (Echinochloa crus-galli); test: Test A pre-/postemergence plant response
From the text: (§1) Seeds of barnyardgrass (Echinochloa crus-galli), large crabgrass (Digitaria sanguinalis), giant foxtail (Setaria faberii), morningglory (Ipomoea spp.), pigweed (Amaranthus retroflexus), velvetleaf (Abutilon theophrasti), wheat (Triticum aestivum) and corn (Zea mays) were planted into a blend of loam soil and sand and treated preemergence with a directed soil spray using test chemicals formulated in a non-phytotoxic solvent mixture which included a surfactant. At the same time these species were also treated with postemergence applications of test compounds formulated in the same manner.
(§2) Plants ranged in height from two to ten cm and were in the one- to two-leaf stage for the postemergence treatment. Treated plants and untreated controls were maintained in a greenhouse for approximately ten days, after which time all treated plants were compared to untreated controls and visually evaluated for injury. Plant response ratings, summarized in Table A, are based on a 0 to 100 scale where 0 is no effect and 100 is complete control. A dash (-) response means no test result.

corn (Zea mays) = test: Test A pre-/postemergence plant response
From the text: as §1, §2

[2] = test system: giant foxtail (Setaria faberii); test: Test A pre-/postemergence plant response
From the text: as §1, §2

[3] = test system: large crabgrass (Digitaria sanguinalis); test: Test A pre-/postemergence plant response
From the text: as §1, §2

[4] = test system: morningglory (Ipomoea spp.); test: Test A pre-/postemergence plant response
From the text: as §1, §2

[5] = test system: pigweed (Amaranthus retroflexus); test: Test A pre-/postemergence plant response
From the text: as §1, §2

[6] = test system: velvetleaf (Abutilon theophrasti); test: Test A pre-/postemergence plant response
From the text: as §1, §2

[7] = test system: wheat (Triticum aestivum); test: Test A pre-/postemergence plant response
From the text: as §1, §2

[8] = test system: barnyardgrass (Echinochloa crus-galli); test: Test B flooded paddy test; conditions: for Plant response rating, Flood, Barnyardgrass: 250 g ai/ha, flooded paddy test, visual rating on 0 to 100 scale (0 no effect, 100 complete control) after 13 to 15 days; for Plant response rating, Barnyardgrass: Flood (flooded paddy test), 62 g ai/ha, scale 0 to 100, 0 is no effect, 100 is complete control, 13 to 15 days
From the text: (§3) Plant species in the flooded paddy test consisted of rice (Oryza sativa), umbrella sedge (Cyperus difformis), ducksalad (Heteranthera limosa) and barnyardgrass (Echinochloa crus-galli) grown to the 2-leaf stage for testing. At the time of treatment, test pots were flooded with water to 3 cm above the soil surface, treated by application of test compounds directly to the paddy water, and then maintained at that water depth for the duration of the test.
(§4) Treated plants and controls were maintained in a greenhouse for 13 to 15 days, after which time all treated plants were visually evaluated and compared to controls. Plant response ratings, summarized in Table B, are based on a scale of 0 to 100 where 0 is no effect and 100 is complete control. A dash (-) response means no test result.

[9] = test system: ducksalad (Heteranthera limosa); test: Test B flooded paddy test; conditions: for Plant response rating, Flood, Ducksalad: 250 g ai/ha, flooded paddy test, visual rating on 0 to 100 scale (0 no effect, 100 complete control) after 13 to 15 days; for Plant response rating, Ducksalad: Flood (flooded paddy test), 62 g ai/ha, scale 0 to 100, 0 is no effect, 100 is complete control, 13 to 15 days
From the text: as §3, §4

rice (Oryza sativa) = test: Test B flooded paddy test; conditions: for Plant response rating, Flood, Rice: 250 g ai/ha, flooded paddy test, visual rating on 0 to 100 scale (0 no effect, 100 complete control) after 13 to 15 days; for Plant response rating, Rice: Flood (flooded paddy test), 62 g ai/ha, scale 0 to 100, 0 is no effect, 100 is complete control, 13 to 15 days
From the text: as §3, §4

[10] = test system: umbrella sedge (Cyperus difformis); test: Test B flooded paddy test; conditions: for Plant response rating, Flood, Sedge, Umbrella: 250 g ai/ha, flooded paddy test, visual rating on 0 to 100 scale (0 no effect, 100 complete control) after 13 to 15 days; for Plant response rating, Sedge, Umbrella: Flood (flooded paddy test), 62 g ai/ha, scale 0 to 100, 0 is no effect, 100 is complete control, 13 to 15 days
From the text: as §3, §4

[11] = Postemergence, 125 g ai/ha, visual injury, 0 to 100 scale (0 no effect, 100 complete control), approx. ten days
[12] = Postemergence, 500 g ai/ha, 0 to 100 scale, 0 = no effect, 100 = complete control, approx. ten days
[13] = Preemergence, 125 g ai/ha, 0 to 100 scale, 0 = no effect, 100 = complete control
[14] = Preemergence, 500 g ai/ha, visual injury, 0 to 100 scale (0 no effect, 100 complete control), approx. ten days

O=C1CCCC(O)=C1C(=O)c1cnc(-c2ccc(Cl)cc2)n(-c2ccccc2)c1=O [Compound 25]
60: Plant response rating, Crabgrass, Large [3, 13] | Plant response rating, Morningglory [4, 14]
40: Crabgrass, Large plant response rating [3, 11]
0: Corn plant response rating (corn (Zea mays); [11]) | Plant response rating, Corn (corn (Zea mays); [13]) | Plant response rating, Corn (corn (Zea mays); [14]) | Plant response rating, Morningglory [4, 13] | Wheat plant response rating [7, 11] | Plant response rating, Wheat [7, 12] | Plant response rating, Wheat [7, 13] | Plant response rating, Flood, Barnyardgrass [8] | Plant response rating, Barnyardgrass [8] | Plant response rating, Flood, Ducksalad [9] | Plant response rating, Ducksalad [9] | Plant response rating, Flood, Rice (rice (Oryza sativa)) | Plant response rating, Rice (rice (Oryza sativa)) | Plant response rating, Flood, Sedge, Umbrella [10] | Plant response rating, Sedge, Umbrella [10]
20: Plant response rating, Barnyardgrass [1, 13] | Plant response rating, Corn (corn (Zea mays); [12]) | Plant response rating, Wheat [7, 14]
30: Barnyardgrass plant response rating [1, 11]
90: Plant response rating, Barnyardgrass [1, 12] | Plant response rating, Foxtail, Giant [2, 12] | Plant response rating, Foxtail, Giant [2, 14] | Plant response rating, Crabgrass, Large [3, 12] | Plant response rating, Morningglory [4, 12]
80: Plant response rating, Barnyardgrass [1, 14] | Pigweed plant response rating [5, 11] | Plant response rating, Pigweed [5, 14] | Plant response rating, Velvetleaf [6, 13]
100: Plant response rating, Crabgrass, Large [3, 14] | Plant response rating, Pigweed [5, 12] | Velvetleaf plant response rating [6, 11] | Plant response rating, Velvetleaf [6, 12] | Plant response rating, Velvetleaf [6, 14]
50: Foxtail, Giant plant response rating [2, 11] | Plant response rating, Foxtail, Giant [2, 13] | Morningglory plant response rating [4, 11] | Plant response rating, Pigweed [5, 13]

Cc1cccc(C)c1-n1c(-c2ccccc2)ncc(C(=O)C2=C(O)CCCC2=O)c1=O [Compound 31]
90: Plant response rating, Foxtail, Giant [2, 12] | Plant response rating, Crabgrass, Large [3, 12] | Plant response rating, Crabgrass, Large [3, 14]
75: Plant response rating, Flood, Ducksalad [9] | Plant response rating, Flood, Sedge, Umbrella [10]
20: Plant response rating, Corn (corn (Zea mays); [12]) | Morningglory plant response rating [4, 11]
0: Plant response rating, Barnyardgrass [1, 13] | Corn plant response rating (corn (Zea mays); [11]) | Plant response rating, Corn (corn (Zea mays); [13]) | Plant response rating, Corn (corn (Zea mays); [14]) | Plant response rating, Foxtail, Giant [2, 13] | Plant response rating, Crabgrass, Large [3, 13] | Plant response rating, Morningglory [4, 13] | Wheat plant response rating [7, 11] | Plant response rating, Wheat [7, 12] | Plant response rating, Wheat [7, 13] | Plant response rating, Wheat [7, 14] | Plant response rating, Flood, Barnyardgrass [8] | Plant response rating, Barnyardgrass [8] | Plant response rating, Flood, Rice (rice (Oryza sativa)) | Plant response rating, Rice (rice (Oryza sativa))
100: Plant response rating, Pigweed [5, 12] | Velvetleaf plant response rating [6, 11] | Plant response rating, Velvetleaf [6, 12]
50: Crabgrass, Large plant response rating [3, 11] | Plant response rating, Morningglory [4, 14]
70: Foxtail, Giant plant response rating [2, 11] | Plant response rating, Morningglory [4, 12] | Pigweed plant response rating [5, 11] | Plant response rating, Velvetleaf [6, 14]
80: Plant response rating, Barnyardgrass [1, 12] | Plant response rating, Pigweed [5, 14]
10: Barnyardgrass plant response rating [1, 11] | Plant response rating, Velvetleaf [6, 13]
60: Plant response rating, Ducksalad [9] | Plant response rating, Sedge, Umbrella [10]
40: Plant response rating, Barnyardgrass [1, 14] | Plant response rating, Foxtail, Giant [2, 14] | Plant response rating, Pigweed [5, 13]

Cc1ccc(-n2c(-c3ccccc3)ncc(C(=O)C3=C(O)CCCC3=O)c2=O)cc1C [Compound 32]
0: Plant response rating, Barnyardgrass [1, 13] | Corn plant response rating (corn (Zea mays); [11]) | Plant response rating, Corn (corn (Zea mays); [13]) | Plant response rating, Corn (corn (Zea mays); [14]) | Plant response rating, Morningglory [4, 13] | Wheat plant response rating [7, 11] | Plant response rating, Wheat [7, 13] | Plant response rating, Rice (rice (Oryza sativa))
20: Barnyardgrass plant response rating [1, 11] | Plant response rating, Crabgrass, Large [3, 13] | Plant response rating, Velvetleaf [6, 13] | Plant response rating, Wheat [7, 14]
90: Plant response rating, Barnyardgrass [1, 14] | Plant response rating, Foxtail, Giant [2, 12] | Plant response rating, Foxtail, Giant [2, 14] | Plant response rating, Crabgrass, Large [3, 12] | Plant response rating, Crabgrass, Large [3, 14] | Plant response rating, Flood, Sedge, Umbrella [10]
75: Plant response rating, Ducksalad [9] | Plant response rating, Sedge, Umbrella [10]
30: Foxtail, Giant plant response rating [2, 11] | Plant response rating, Pigweed [5, 13] | Plant response rating, Wheat [7, 12] | Plant response rating, Flood, Rice (rice (Oryza sativa))
10: Plant response rating, Corn (corn (Zea mays); [12]) | Plant response rating, Foxtail, Giant [2, 13] | Plant response rating, Barnyardgrass [8]
100: Plant response rating, Morningglory [4, 12] | Pigweed plant response rating [5, 11] | Plant response rating, Pigweed [5, 12] | Plant response rating, Pigweed [5, 14] | Velvetleaf plant response rating [6, 11] | Plant response rating, Velvetleaf [6, 12]
70: Plant response rating, Velvetleaf [6, 14]
95: Plant response rating, Flood, Ducksalad [9]
40: Plant response rating, Flood, Barnyardgrass [8]
50: Crabgrass, Large plant response rating [3, 11] | Morningglory plant response rating [4, 11]
80: Plant response rating, Barnyardgrass [1, 12] | Plant response rating, Morningglory [4, 14]
